Test results taken from patent publication US20100234469A1, “New Crystals Of A Benzoylbenzeneacetamide Derivative” (Medichem, S.A., priority 2009, published 2010).
Converted amounts (≈) assume the structure as drawn. Where two headings read alike, the source gives them in different places.

Key:
[1] = Optical microscopy: crystal shape and aspect ratio; type: physicochemical; conditions: for Crystal shape: optical microscopy, 40× magnification; for Aspect ratio: crystal length / width, average of at least 100 crystals
Source text: The “aspect ratio” of a crystal is defined as the ratio of its longest dimension to its shortest dimension. As used herein, “aspect ratio” is the quotient of the division of a crystal's length by its width. The aspect ratio of crystals can be obtained by taking micrographs of a batch of crystal (See General Experimental Conditions. Optical Microscopy).
The micrographs were taken at 40× magnification.
The aspect ratio of crystals was obtained from micrographs of a batch of crystal. Micrographs were processed with ImageJ 1.42q software. Length and width of at least 100 representative crystals (i.e., having an area greater than 500 μm^2 for a 40× magnification image) was measured, and the aspect ratio of each crystal was calculated by dividing the crystal length by the crystal width. The average aspect ratio for each batch was determined by dividing the sum of crystal aspect ratios by the number of crystals measured.

[2] = Chargeability observed when handling crystals with a metallic material; type: physicochemical
Source text: Drug substances in solid form can suffer electrostatic charging by contact or friction electrification (tribocharging) caused by interactions among particles or between particles and the surfaces that contain them. These interactions can affect formulation, manufacture, powder flow, and packing behaviour. In addition, it has been reported that electrostatic charges are also responsible for problems in blend uniformity. The net positive or negative tendency of dry powders to become charged electrostatically is called chargeability.
There is no standard instrument for the measurement of the chargeability of dry powders (see AAPS PharmSciTech 2006, 7, Article 103). Triboelectric charge is commonly reported on a charge-to-mass basis since net charge and mass can be easily measured. However, triboelectric and induction charging are more closely related to the surface area of a particle rather to volume or mass. Then, it is well known that the surface area of the particles plays a key role in dry powder chargeability, and that therefore the particles having a higher specific surface area can hold a greater charge.

[3] = Solubility of nepafenac at reflux temperature in crystallization solvent; type: physicochemical
Method: General procedure: Nepafenac was dissolved under magnetical stirring and at reflux in a solvent (See Table 1). The solution was cooled to room temperature under stirring. The solid was filtered and dried. The different conditions and the obtained results are described in Table 1 below.

[4] = Flowability by Hausner ratio (tapped / bulk density); type: physicochemical; conditions: micronized crystals
Method: Flowability affects the ease with which the material is handled during processing into a pharmaceutical product. Namely, when flowability is very poor, problems occur with handling and processing during formulating. The flowability of nepafenac can be measured using the Hausner ratio, which is a value calculated by dividing the tapped bulk density of nepafenac by the freely settled bulk density of nepafenac. The freely settled bulk density is calculated by pouring a known weight of material into a measuring cylinder and recording the volume. The tapped density is calculated by tapping the cylinder against a surface for a specified number of times and recording again the new volume. See Henry H. Hausner, “Friction Conditions in a Mass of Metal Powders”, Int. J. Powder Metall. Vol. 3, 1967, pp 7-13.
A low Hausner ratio indicates a high flowability. […]
Measurement of Hausner ratio is well-known in the art and is described, for example, by Mersmann; Crystallization Technology Handbook (A. Mersmann, ed., 2nd Ed., Marcel Dekker). In the present invention, the bulk and tapped densities for each sample of nepafenac were determined using a TP-TD1 tapped densitometer from Pharma Test. The Hausner ratio of the nepafenac sample was calculated by dividing the tapped bulk density by the bulk density.

[5] = Particle size distribution (Malvern Mastersizer S); type: physicochemical; conditions: for DMVS (μm): Table 4, surface area mean diameter (D[3,2]); for D[4,3]: mean diameter by volume
Method: The particle size for nepafenac was measured using a Malvern Mastersizer S particle size analyzer with an MS1-Small Volume Sample Dispersion Unit stirred cell. A 300RF mm lens and a beam length of 2.4 mm were used. Samples for analysis were prepared by wetting a weighed amount of nepafenac (approximately 50 mg) with 0.5 mL of a 1% solution of Igepal CA-630 in deionized water, and dispersing in 20 mL of deionized water. After sonication for 1 minute, the suspension was delivered drop-wise to the previously background and corrected measuring cell filled with dispersant (deionized water) until the obscuration reached the desired level. Volume distributions were obtained for three times. After completing the measurements, the sample cell was emptied and cleaned, refilled with suspending medium, and the sampling procedure repeated again. For characterization, the values of D10, D50 and D90 (by volume), D[4,3] (mean diameter by volume) and D[3,2] (mean diameter by surface area to volume, or Sauter diameter) were specifically listed, each one being the mean of the six values available for each characterization parameter.
The notation Dx means that X % of the particles have a diameter less than a specified diameter D. Thus a D90 [or D(v, 0.9)] of 100 μm means that 90% of the particles have a diameter less than 100 μm.

[6] = Sphericity factor calculation; type: physicochemical; conditions: calculated from Sw, ρ and DMVS
Source text: One of the most common ways of expressing the degree of irregularity of the particles is by means of the sphericity factor (ψw), which is generally defined as the ratio between the surface area of a sphere having the same volume as the particle and the surface area of the particle:
Because sphericity factors are not calculated for each particle but for an assembly of particles, they have to be based on an average size. Thus, the sphericity factor will then be given by the following equation: […]
where Sw is the powder specific surface area, ρ is the particle density and DMVS is the surface area mean diameter, also referred to as the mean volume-surface, the Sauter diameter or D[3,2]. The Sauter diameter is defined as the diameter of a sphere that has the same volume/surface area ratio as the particle of interest.
A sphericity factor of 1.0 describes a perfect sphere with the greatest ease of flow (Encapsulated and powdered foods, CRC Press 2005).

[7] = Density by glass pycnometer in n-heptane; type: physicochemical; conditions: for ρ: Table 4, particle density
Method: Density of nepafenac samples was determined at 25° C. using a 50 mL glass pycnometer. […] The density of the nepafenac sample (ρs) can be determined from the known density of n-heptane (ρH: 0.685 g/cm^3), the weight of the pycnometer filled only with n-heptane (WH^0, the weight of the filled pycnometer containing both nepafenac and n-heptane (WS+H), and the weight of nepafenac (WS):
Density of nepafenac samples was determined for three times, being the listed result the mean of the three values available for each sample.

[8] = BET specific surface area; type: physicochemical; conditions: for Sw (m^2/g): Table 4, powder specific surface area; for Specific Surface Area (BET): N2 adsorption at 77 K
Method: The BET (Brunauer, Emmett and Teller) specific surface area for nepafenac was measured using a Micromeritics™ GEMINI V equipment (GEMINI CONFIRM V2.00 Software™). The sample for analysis was degassed at 30° C. for 10 minutes and at 140° C. for one hour. The determination of the adsorption of N2 at 77 K was measured for relative pressures in the range of 0.02 to 0.2 for a weighed amount of nepafenac (i.e., approximately 0.5 g).

[9] = Solubility statements (water, n-heptane); type: physicochemical; conditions: n-heptane at the working temperature (25° C.)
[10] = stated as known; cited from earlier work
[11] = Table 3, micronized samples, unit inferred

## NC(=O)Cc1cccc(C(=O)c2ccccc2)c1N [Example 5, 2-amino-3-benzoylbenzeneacetamide]
[1]
  Crystal shape: plate-like shape
[2]
  Chargeability: Reduced chargeability

## NC(=O)Cc1cccc(C(=O)c2ccccc2)c1N [Example 1, 2-amino-3-benzoylbenzeneacetamide]
[1]
  Aspect ratio: 3.04
  Crystal shape: Plate
[3]; 2-propanol:water 90:10, organic solvent or mixture, thermodynamic from solid, in 2-propanol:water 90:10 at reflux, read-out: Solubility
  solubility: 55.2 mg/mL (≈ 217 mM)

## NC(=O)Cc1cccc(C(=O)c2ccccc2)c1N [Example 8, 2-amino-3-benzoylbenzeneacetamide]
[4]
  Hausner ratio: 1.43
[5]
  DMVS (μm): 2.5 μm
[5]; by volume
  D10: 1.2 μm
  D50: 5.8 μm
  D90: 18.9 μm
[6]
  Ψw (sphericity factor): 1.0
[7]
  ρ: 1.33 g/mL
[8]
  Sw (m^2/g): 1.7686 ± 0.0242 m^2/g

## NC(=O)Cc1cccc(C(=O)c2ccccc2)c1N [Example 7, 2-amino-3-benzoylbenzeneacetamide, reference compound]
[5]; by volume
  D10: 1.3 μm
  D50: 6.1 μm
  D90: 17.1 μm

## NC(=O)Cc1cccc(C(=O)c2ccccc2)c1N [Comparative Example 3, 2-amino-3-benzoylbenzeneacetamide, reference compound]
[1]
  Crystal shape: Needle-like crystals
[5]; by volume
  D10: 23.6 μm
  D50: 85.8 μm
  D90: 491.1 μm
[5]; unit not given, in µm (unit assumed)
  D[4,3]: 178.4
[8]
  Specific Surface Area (BET): 0.8256±0.0270 m^2/g

## NC(=O)Cc1cccc(C(=O)c2ccccc2)c1N [Comparative Example 1, 2-amino-3-benzoylbenzeneacetamide, reference compound]
[1]
  Crystal shape: needle-like shape
[2]
  Chargeability: high chargeability
[3]; in 2-propanol at reflux temperature
  solubility: 21.2 mg/mL (≈ 83.4 mM)

## NC(=O)Cc1cccc(C(=O)c2ccccc2)c1N [Example 6, 2-amino-3-benzoylbenzeneacetamide]
[1]
  Crystal shape: plate-like crystals
[5]; by volume
  D10: 30.5 μm
  D50: 144.9 μm
  D90: 401.8 μm
[5]
  D[4,3]: 185.0 μm
[8]
  Specific Surface Area (BET): 0.7046±0.0272 m^2/g

## NC(=O)Cc1cccc(C(=O)c2ccccc2)c1N [nepafenac, 2-amino-3-benzoylbenzeneacetamide, reference compound]
[9]
  Solubility in n-heptane: practically insoluble
[7]; experimental
  True density: 1.33 g/mL
[3]; 2-propanol, organic solvent or mixture, thermodynamic from solid, in 2-propanol at reflux temperature, read-out: Solubility
  solubility: 21 mg/mL (≈ 82.6 mM)
[3]; mixtures of 2-propanol with up to 40% of water, organic solvent or mixture, thermodynamic from solid, in mixtures of 2-propanol with up to 40% of water at reflux temperature, read-out: Solubility
  solubility: 30 to 80 mg/mL (≈ 118 to 315 mM)
[3]; water, 100 °C, water, thermodynamic from solid, in water at reflux temperature, read-out: Solubility
  solubility: 0.7 mg/mL (≈ 2.75 mM)
[10]
  Solubility in water: practically insoluble

## NC(=O)Cc1cccc(C(=O)c2ccccc2)c1N [Batch 3, 2-amino-3-benzoylbenzeneacetamide]
[5]; [11]
  D10: 4.4 µm
  D50: 14.9 µm
  D90: 45.3 µm

## NC(=O)Cc1cccc(C(=O)c2ccccc2)c1N [Example 10, 2-amino-3-benzoylbenzeneacetamide]
[5]
  DMVS (μm): 2.7 μm
[5]; by volume
  D10: 2.2 μm
  D50: 12.1 μm
  D90: 27.5 μm
[5]; mean diameter by surface area to volume (Sauter diameter)
  D[3,2]: 2.7 μm
[6]
  Ψw (sphericity factor): 0.82
[7]
  ρ: 1.33 g/mL
[8]
  Sw (m^2/g): 2.0341 ± 0.0074 m^2/g

## NC(=O)Cc1cccc(C(=O)c2ccccc2)c1N [Example 4, 2-amino-3-benzoylbenzeneacetamide]
[1]
  Crystal shape: Plate
[3]; 2-propanol:water 60:40, organic solvent or mixture, thermodynamic from solid, in 2-propanol:water 60:40 at reflux, read-out: Solubility
  solubility: 32.6 mg/mL (≈ 128 mM)

## NC(=O)Cc1cccc(C(=O)c2ccccc2)c1N [Batch 1, 2-amino-3-benzoylbenzeneacetamide]
[5]; [11]
  D10: 6.1 µm
  D50: 21.4 µm
  D90: 64.3 µm

## NC(=O)Cc1cccc(C(=O)c2ccccc2)c1N [Example 2, 2-amino-3-benzoylbenzeneacetamide]
[1]
  Crystal shape: Plate
[3]; 2-propanol:water 80:20, organic solvent or mixture, thermodynamic from solid, in 2-propanol:water 80:20 at reflux, read-out: Solubility
  solubility: 78.6 mg/mL (≈ 309 mM)

## NC(=O)Cc1cccc(C(=O)c2ccccc2)c1N [Comparative Example 2, 2-amino-3-benzoylbenzeneacetamide, reference compound]
[1]
  Aspect ratio: 5.67
  Crystal shape: Needle-like crystals

## NC(=O)Cc1cccc(C(=O)c2ccccc2)c1N [Example 3, 2-amino-3-benzoylbenzeneacetamide]
[1]
  Crystal shape: Plate
[3]; 2-propanol:water 70:30, organic solvent or mixture, thermodynamic from solid, in 2-propanol:water 70:30 at reflux, read-out: Solubility
  solubility: 79.6 mg/mL (≈ 313 mM)

## NC(=O)Cc1cccc(C(=O)c2ccccc2)c1N [Batch 2, 2-amino-3-benzoylbenzeneacetamide]
[5]; [11]
  D10: 4.8 µm
  D50: 19.8 µm
  D90: 66.5 µm
